The target of one assay is T1, HCV NS5B (Hepatitis C virus genotype 1b, UniProt Q9WMX2).
T1 construct: The protein was expressed with an 18 amino acid C-terminal truncation to enhance the solubility; made in house; host or cells: E. coli BL21(DE3)
As to the kind of experiment: HCV NS5B RdRp enzyme assay. As to conditions: HCV NS5B RdRp genotype 1b; standard or modified assay not specified. Format: biochemical. On the procedure: HCV NS5B RdRp cloning, expression, and purification. The cDNA encoding the NS5B protein of HCV, genotype 1b, was cloned into the pET21a expression vector. The protein was expressed with an 18 amino acid C-terminal truncation to enhance the solubility. The E. coli competent cell line BL21(DE3) was used for expression of the protein. Cultures were grown at 37° C. for ˜4 hours until the cultures reached an optical density of 2.0 at 600 nm. The cultures were cooled to 20° C. and induced with 1 mM IPTG. Fresh ampicillin was added to a final concentration of 50 μg/ml and the cells were grown overnight at 20° C.
Cell pellets (3 L) were lysed for purification to yield 15-24 mgs of purified NS5B. The lysis buffer consisted of 20 mM Tris-HCl, pH 7.4, 500 mM NaCl, 0.5% triton X-100, 1 mM DTT, 1 mM EDTA, 20% glycerol, 0.5 mg/ml lysozyme, 10 mM MgCl2, 15 ug/ml deoxyribonuclease I, and Complete TM protease inhibitor tablets (Roche). After addition of the lysis buffer, frozen cell pellets were resuspended using a tissue homogenizer. To reduce the viscosity of the sample, aliquots of the lysate were sonicated on ice using a microtip attached to a Branson sonicator. The sonicated lysate was centrifuged at 100,000×g for 1 hr at 4° C. and filtered through a 0.2 μm filter unit (Corning).
The protein was purified using three sequential chromatography steps: Heparin sepharose CL-6B, polyU sepharose 4B, and Hitrap SP sepharose (Pharmacia). The chromatography buffers were identical to the lysis buffer but contained no lysozyme, deoxyribonuclease I, MgCl2 or protease inhibitor and the NaCl concentration of the buffer was adjusted according to the requirements for charging the protein onto the column. Each column was eluted with a NaCl gradient which varied in length from 5-50 column volumes depending on the column type. After the final chromatography step, the resulting purity of the enzyme is >90% based on SDS-PAGE analysis. The enzyme was aliquoted and stored at −80° C.
Standard HCV NS5B RdRp enzyme assay. HCV RdRp genotype 1b assays were run in a final volume of 60 μl in 96 well plates (Costar 3912). The assay buffer is composed of 20 mM Hepes, pH 7.5, 2.5 mM KCl, 2.5 mM MgCl2, 1 mM DTT, 1.6 U RNAse inhibitor (Promega N2515), 0.1 mg/ml BSA (Promega R3961), and 2% glycerol. All compounds were serially diluted (3-fold) in DMSO and diluted further in water such that the final concentration of DMSO in the assay was 2%. HCV RdRp genotype 1b enzyme was used at a final concentration of 28 nM. A polyA template was used at 6 nM, and a biotinylated oligo-dT12 primer was used at 180 nM final concentration. Template was obtained commercially (Amersham 27-4110). Biotinylated primer was prepared by Sigma Genosys. 3H-UTP was used at 0.6 μCi (0.29 μM total UTP). Reactions were initiated by the addition of enzyme, incubated at 30° C. for 60 min, and stopped by adding 25 μl of 50 mM EDTA containing SPA beads (4 μg/μl, Amersham RPNQ 0007). Plates were read on a Packard Top Count NXT after >1 hr incubation at room temperature.
Modified HCV NS5B RdRp enzyme assay. A modified enzyme assay was performed essentially as described for the standard enzyme assay except for the following: The biotinylated oligo dT12 primer was precaptured on streptavidin-coated SPA beads by mixing primer and beads in assay buffer and incubating at room temperature for one hour. Unbound primer was removed after centrifugation. The primer-bound beads were resuspended in 20 mM Hepes buffer, pH 7.5 and used in the assay at final concentrations of 20 nM primer and 0.67 μg/μl beads. Order of addition in the assay: enzyme (14 nM) was added to diluted compound followed by the addition of a mixture of template (0.2 nM), 3H-UTP (0.6 μCi, 0.29 μM), and primer-bound beads, to initiate the reaction; concentrations given are final. Reactions were allowed to proceed for 4 hours at 30° C.
IC50 values for compounds were determined using seven different [I]. […]

For the next assay, the system named is HCV replicon. Briefly: HCV replicon assay (FRET / luciferase reporter). Format: cell-based, HCV (HUH-7 cells). The conditions noted are these: Hepatitis C virus; HCV replicon cells. An excerpt:
FRET Assay Preparation. To perform the HCV FRET screening assay, 96-well cell culture plates were used. The FRET peptide (Anaspec, Inc.) (Taliani et al., Anal. Biochem. 1996, 240, 60-67) contains a fluorescence donor, EDANS, near one end of the peptide and an acceptor, DABCYL, near the other end. The fluorescence of the peptide is quenched by […] resonance energy transfer (RET) between the donor and the acceptor, but as the NS3 protease cleaves the peptide the products are released from RET quenching and the fluorescence of the donor becomes apparent. The assay reagent was made as follows: 5× cell Luciferase cell culture lysis reagent from Promega (#E153A) diluted to 1× with dH2O, NaCl added to 150 mM final, the FRET peptide diluted to 20 μM final from a 2 mM stock.
To prepare plates, HCV replicon cells, with or without a Renilla luciferase reporter gene, were trypsinized and placed into each well of a 96-well plate with titrated test compounds added in columns 3 through 12; columns 1 and 2 contained a control compound (HCV protease inhibitor), and the bottom row contained cells without compound. The plates were then placed in a CO2 incubator at 37° C.
Assays. Subsequent to addition of the test compounds described above (FRET Assay Preparation), at various times the plate was removed and Alamar blue solution (Trek Diagnostics, #00-100) was added per well as a measure of cellular toxicity. After reading in a Cytoflour 4000 instrument (PE Biosystems), plates were rinsed with PBS and then used for FRET assay by the addition of 30 ul of the FRET peptide assay reagent described above (FRET Assay Preparation) per well. The plate was then placed into the Cytoflour 4000 instrument which had been set to 340 excite/490 emission, automatic mode for 20 cycles and the plate read in a kinetic mode. Typically, the signal to noise using an endpoint analysis after the reads was at least three-fold. Alternatively, after Alamar blue reading, plates were rinsed with PBS, 50 ul of DMEM (high glucose) without phenol red was added and plates were then used for luciferase assay using the Promega Dual-Glo Luciferase Assay System.
Compound analysis was determined by quantification of the relative HCV replicon inhibition and the relative cytotoxicity values. To calculate cytoxicity values, the average Alamar Blue fluorescence signals from the control wells were set as 100% non-toxic. The individual signals in each of the compound test wells were then divided by the average control signal and multiplied by 100% to determine […]. To calculate the HCV replicon inhibition values, an average background value was obtained from the two wells containing the highest amount of HCV protease inhibitor at the end of the assay period. These numbers were similar to those obtained from naïve Huh-7 cells.
The background numbers were then subtracted from the average signal obtained from the control wells and this number was used as 100% activity. The individual signals in each of the compound test wells were then divided by the averaged control values after background subtraction and multiplied by 100% to determine percent activity. EC50 values for a protease inhibitor titration were calculated as the concentration which caused a 50% reduction in FRET or luciferase activity. The two numbers generated for the compound plate, percent cytoxicity and percent activity were used to determine compounds of interest for further analysis.
The HCV replicon luciferase assay was developed to monitor the inhibitory effects of compounds described in the disclosure on HCV viral replication. Utilization of a replicon luciferase reporter assay was first described by Krieger et al (Krieger N, Lohmann V, and Bartenschlager R, J. Virol. 75(10):4614-4624 (2001)). HUH-7 cells, constitutively expressing the HCV replicon, were grown in Dulbecco's Modified Eagle Media (DMEM) (Gibco-BRL) containing 10% Fetal calf serum (FCS) (Sigma) and 1 mg/ml G418 (Gibco-BRL). […]

T1 sequence (Q9WMX2 2420-2992): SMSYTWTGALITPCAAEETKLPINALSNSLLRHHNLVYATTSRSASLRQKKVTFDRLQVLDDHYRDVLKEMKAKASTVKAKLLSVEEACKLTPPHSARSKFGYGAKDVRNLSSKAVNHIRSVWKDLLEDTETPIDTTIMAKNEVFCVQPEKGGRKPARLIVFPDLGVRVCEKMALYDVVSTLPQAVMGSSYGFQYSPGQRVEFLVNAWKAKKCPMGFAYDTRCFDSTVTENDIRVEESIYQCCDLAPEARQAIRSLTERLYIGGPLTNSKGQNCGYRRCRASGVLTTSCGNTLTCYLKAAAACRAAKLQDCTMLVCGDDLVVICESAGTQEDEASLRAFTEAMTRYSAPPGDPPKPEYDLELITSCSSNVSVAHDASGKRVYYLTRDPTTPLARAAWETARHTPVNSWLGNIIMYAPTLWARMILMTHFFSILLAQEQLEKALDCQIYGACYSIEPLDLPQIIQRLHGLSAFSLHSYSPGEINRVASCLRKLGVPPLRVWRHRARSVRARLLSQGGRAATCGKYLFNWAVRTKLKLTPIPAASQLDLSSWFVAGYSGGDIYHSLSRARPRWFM

`CNC(=O)c1c(-c2ccc(F)cc2)oc2ccc(-c3cc(C(=O)NC4(c5ccc6[nH]ccc6n5)CC4)ccc3C)c(F)c12`: at HCV NS5B, the IC50 (commonly the midpoint of a concentration-inhibition curve) was determined as 20 nM. For the same compound, a half-maximal response in the assay with HCV replicon (EC50) required 7 nM.

As for `CNC(=O)c1c(-c2ccc(F)cc2)oc2ccc(-c3cc(C(=O)NC4(c5nccc6[nH]ccc56)CC4)ccc3C)c(F)c12`, in the assay with HCV replicon, the EC50 – broadly, the concentration needed to bring the measured effect to its halfway point – turned out to be 60 nM.

On HCV NS5B, `CNC(=O)c1c(-c2ccc(F)cc2)oc2ccc(-c3cc(C(=O)NC4(c5ccc6cccnc6n5)CC4)ccc3C)cc12` displayed an IC50 of 3 nM. The compound further showed an EC50 in the assay on HCV replicon of 40 nM.

`CNC(=O)c1c(-c2ccc(F)cc2)oc2ccc(-c3cc(C(=O)NC4(c5ccc6ccncc6n5)CC4)ccc3C)cc12` came in with an IC50 against HCV NS5B of 5 nM. In the assay with HCV replicon, this compound registered an EC50 of 3 nM.

Consider `CNC(=O)c1c(-c2ccc(F)cc2)oc2ccc(-c3cc(C(=O)NC4(c5ccc6ccncc6n5)CC4)ccc3C)c(F)c12`, for which, on HCV NS5B, inhibition was half-maximal at 20 nM (IC50). In the assay with HCV replicon, this compound showed an EC50 of 6 nM.

At HCV NS5B, `CNC(=O)c1c(-c2ccc(F)cc2)oc2ccc(-c3cc(C(=O)NC4(c5ccc6cnccc6n5)CC4)ccc3C)cc12` gave an IC50 of 8 nM. Moreover, the EC50 in the assay on HCV replicon turned out to be 2 nM.

At HCV NS5B, `CNC(=O)c1c(-c2ccc(F)cc2)oc2ccc(-c3cc(C(=O)NC4(c5ccc6ccncc6n5)CC4)cc(F)c3C)c(F)c12` had an IC50 of 10 nM. Further, the EC50 in the assay with HCV replicon was found to be 9 nM.

Regarding `CNC(=O)c1c(-c2ccc(F)cc2)oc2ccc(-c3cc(C(=O)NC4(c5ccc6cccnc6n5)CC4)cc(F)c3C)c(F)c12`, the IC50 on HCV NS5B stood at 10 nM. Further, the EC50 in the assay on HCV replicon came out at 70 nM.

`CNC(=O)c1c(-c2ccc(F)cc2)oc2ccc(-c3cc(C(=O)NC4(c5ccc6cnccc6n5)CC4)cc(F)c3C)c(F)c12` registered an IC50 against HCV NS5B of 7 nM. Also, in the assay with HCV replicon, the EC50 came to 6 nM.

Regarding `CNC(=O)c1c(-c2ccc(F)cc2)oc2ccc(-c3cc(C(=O)NC4(c5ccc6ncccc6n5)CC4)ccc3C)c(F)c12`, the IC50 at HCV NS5B was found to be 10 nM. This compound also had an EC50 in the assay on HCV replicon of 30 nM.

`CNC(=O)c1c(-c2ccc(F)cc2)oc2ccc(-c3cc(C(=O)NC4(c5ccc6ncccc6n5)CC4)ccc3C)cc12` registered an IC50 at HCV NS5B of 10 nM. Further, in the assay with HCV replicon, the EC50 is 30 nM.

On HCV NS5B, `CNC(=O)c1c(-c2ccc(F)cc2)oc2ccc(-c3cc(C(=O)NC4(c5ccc6ccncc6n5)CC4)c(OC)cc3OCC(N)=O)cc12` gave an IC50 of 5 nM. Besides, in the assay on HCV replicon, the EC50 was determined as 4 nM.

In the case of `CNC(=O)c1c(-c2ccc(F)cc2)oc2ccc(-c3cc(C(=O)NC4(c5ncc6cnccc6n5)CC4)ccc3C)c(F)c12`, the IC50 at HCV NS5B came out at 6 nM. This compound displayed an EC50 in the assay with HCV replicon of 20 nM.

`CNC(=O)c1c(-c2ccc(F)cc2)oc2ccc(-c3cc(C(=O)NC4(c5nc6cnccc6o5)CC4)ccc3C)c(F)c12`: the IC50 on HCV NS5B came to 20 nM. In the assay with HCV replicon, this compound showed an EC50 of 4 nM.

On to `CNC(=O)c1c(-c2ccc(F)cc2)oc2ccc(-c3cc(C(=O)NC4(c5nc6cnccc6o5)CC4)c(OC)cc3C)c(F)c12`, for which the IC50 on HCV NS5B was found to be 40 nM. In the assay with HCV replicon, a half-maximal effect (EC50) was put at 1 nM.

At HCV NS5B, `CNC(=O)c1c(-c2ccc(F)cc2)oc2ccc(-c3cc(C(=O)NC4(c5nc6cnccc6o5)CC4)ccc3C)cc12` returned an IC50 of 20 nM. Besides, the EC50 in the assay on HCV replicon came to 1 nM.

Compound `CNC(=O)c1c(-c2ccc(F)cc2)oc2ccc(-c3cc(C(=O)NC4(c5nc6cnccc6o5)CC4)c(OC)cc3C)cc12` returned an IC50 on HCV NS5B of 10 nM. In the assay on HCV replicon, this compound yielded an EC50 of 1 nM.

`CNC(=O)c1c(-c2ccc(F)cc2)oc2ccc(-c3cc(C(=O)N[C@@H](C)c4nc5cnccc5o4)c(OC)cc3C)c(F)c12` had an IC50 at HCV NS5B of 60 nM. Also, in the assay on HCV replicon, the EC50 came out at 20 nM.

`CNC(=O)c1c(-c2ccc(F)cc2)oc2ccc(-c3cc(C(=O)N[C@H](C)c4nc5cnccc5o4)c(OC)cc3C)c(F)c12` had an IC50 on HCV NS5B of 40 nM. For the same compound, the EC50 in the assay on HCV replicon worked out at 10 nM.

On to `CNC(=O)c1c(-c2ccc(F)cc2)oc2ccc(-c3cc(C(=O)NC4(c5nc6ccncc6o5)CC4)c(OC)cc3C)c(F)c12` [4-fluoro-2-(4-fluorophenyl)-5-(4-methoxy-2-methyl-5-(1-(oxazolo[5,4-c]pyridin-2-yl)cyclopropylcarbamoyl)phenyl)-N-methylbenzofuran-3-carboxamide], for which the IC50 at HCV NS5B was found to be 20 nM. In the assay on HCV replicon, this compound yielded an EC50 of 4 nM.

At HCV NS5B, `CNC(=O)c1c(-c2ccc(F)cc2)oc2ccc(-c3cc(C(=O)NC4(c5nc6cnccc6o5)CC4)cc(F)c3C)c(F)c12` [4-fluoro-5-(3-fluoro-2-methyl-5-(1-(oxazolo[4,5-c]pyridin-2-yl)cyclopropylcarbamoyl)phenyl)-2-(4-fluorophenyl)-N-methylbenzofuran-3-carboxamide] came in with an IC50 of 20 nM. The EC50 in the assay on HCV replicon turned out to be 6 nM.

Take `CNC(=O)c1c(-c2ccc(F)cc2)oc2ccc(-c3cc(C(=O)NC4(c5nc6cnccc6o5)CC4)cc(F)c3C)cc12` [5-(3-fluoro-2-methyl-5-(1-(oxazolo[4,5-c]pyridin-2-yl)cyclopropylcarbamoyl)phenyl)-2-(4-fluorophenyl)-N-methylbenzofuran-3-carboxamide]: the IC50 at HCV NS5B amounted to 20 nM. In the assay with HCV replicon, this compound gave an EC50 of 3 nM.

The values above are taken from US8354410B2 (Bristol-Meyers Squibb Company, priority 2010, dated 2013).
